# Entries after “also recorded” stand apart in the source; their conditions may differ.
# Assays:
# Type in all cases: in vivo, human
# [1] = tested on: patients with ET; assay: Randomized withdrawal sub-study / blinded 6-week crossover period of the Phase 2 extension
# From the text: At the re-randomization visit for the cross-over period, and every 7 days in that portion of the study, the treatment regimen was assigned by the IRT and dispensed by site pharmacist for direct-to-patient (DTP) shipping. In the cross-over period of the trial, all participants were centrally assigned to randomize to remain on the current regimen of Compound 1 or placebo using an IRT. After 3 weeks, participants receiving placebo were switched over to Compound 1 following the regimen described in Table 3. The IRT assigned treatment regimen based on the Tetras ADL response criteria after day 7.
# The open-label protocol was amended to further assess the criteria to be used in the upcoming randomized withdrawal study in Phase 3 (as described in Example 3). In this sub-study, patients were re-randomized in a blinded-fashion to either receive placebo or continue to receive Compound 1. Twenty-one patients who completed assessments at week 14 of the Open Label Extension were eligible to participate in the blinded sub-study.
# Patients were evaluated weekly over a total of 6 weeks, with 11 patients assigned to Compound 1 and 10 patients assigned to placebo for the initial 3-week period, crossing over to either placebo or Compound 1 for an additional 3-week period. Blinded rescue was triggered for patients on placebo if loss in the mADL11 exceeded 2 points at any timepoint.
# The results of the Phase 2 trials with ulixacaltamie (see Examples 1 and 2) support the efficacy and safety of ulixacaltamide in patients with ET. […] In the double-blind (DB) portion of the Phase 2 study, the rescored TETRAS-ADL items 1-11 (mADL11) score decreased more in participants randomized to Compound 1 compared with placebo after 56 days of dosing, with least square mean (LSM standard error [SE]) scores of ([…] [0.81]) compared with placebo (−0.87 [0.95]). The LSM (95% confidence interval [CI]) treatment difference was −1.82 (95% CI: −3.565, −0.066; with a nominal p value of <0.05). In the Phase 2 extension period, 20 participants completed a blinded 6-week crossover period. Participants were randomized in blinded fashion to either 3 weeks of Compound 1 60 mg or placebo. Rescue treatment (Compound 1) was offered to participants if their mADL11 worsened by a preset threshold. […] None of the Compound 1-treated participants and 9 of 21 placebo-treated participants qualified for and received rescue treatment within the 3-week period.
# [2] = tested on: participants with moderate to severe ET; assay: Phase 2 trial, randomized double-blind placebo-controlled part: efficacy (TETRAS mADL, ADL, mADL11, PGI-C, CGI-S)
# From the text: Severity of ET in this study was defined by eligibility criteria on TETRAS-ADL, CGI-S, and TETRAS-PS items 6 and 7. This dose range finding trial is comprised of three parts. The first part was randomized, double-blinded (DB), and placebo-controlled, the second part was an optional extension that consisted of an Extension DB Lead-in Period followed by an Extension Open-label (OL) Period. Further, there was also a third part available for completers of the Day 99 visit, which third part was comprised of a blinded cross-over period (referred to as cross-over period) after re-randomization for 6 weeks, after which all completers would receive formula (I) in an open-label fashion. […] The primary objective of this trial was to evaluate the efficacy of Compound 1 compared to placebo after 56 days (end of randomized, DB, placebo-controlled part) of dosing in participants with ET with moderate to severe tremor utilizing modified ADL as the primary efficacy endpoint. Secondary and exploratory objectives include further efficacy evaluations, an evaluation of the safety and tolerability, and determination of plasma concentrations of formula (I) and its metabolites. The design of the Phase 2 trial is illustrated in FIG. 1.
# Participants who continued to meet all clinical trial entry criteria on Day 1 were randomized to receive DB treatment with Compound 1 or placebo every morning (QAM) from Day 1 through Day 56. Participants were randomized to 1 of 2 fixed-dose regimens or placebo in a 1:1:1 ratio. No dosage adjustments were allowed.
# On Days 14, 28, 42, and 56, participants returned to the clinic for PK sampling, dosing, efficacy, and safety assessments. Key efficacy assessments at these visits included TETRAS-PS, TETRAS ADL, CGI-S, CGI-I, and PGI C.
# Fixed titration regimens were used (Table 1). Participants were not allowed to adjust the number of tablets per day.
# Selected items from the TETRAS-ADL and TETRAS-PS (or TETRAS-CUL, as appropriate) were scored in a modified manner and combined to create a TETRAS modified total score. Items 1-11 in the TETRAS ADL subscale and items 6 and 7 of the TETRAS-PS were used, with scoring adjusted so that response options 0 and 1 were combined into a single response of “0=Normal.” Further, scores of 2, 3, and 4 were adjusted to 1, 2, and 3, respectively. The TETRAS modified total score were the sum of these adjusted TETRAS-ADL and TETRAS PS items, having a possible range of 0 to 42, where larger values represent increased direct tremor impact to activities of daily living. The items that are included in the TETRAS-modified total score are illustrated in FIG. 2.
# The primary efficacy measure in this clinical trial was change from baseline in mADL at day 56. Ulixacaltamide effect on individual mADL items was determined by calculating the fold-change adjusted by placebo change at Day 56 in mADL for individual mADL items. The secondary efficacy measures included change in Clinical Global Impression-Severity (CGI-S) score, Patient Global Impression-Change (PGI-C) score, TETRAS-ADL total score, TETRAS-UL score, TETRAS-CUL score and TETRAS-PS score.
# [3] = Phase 1 trial: effect of a high-fat, high-calorie meal on pharmacokinetics; settings: 120 mg dose, steady state, healthy adult participants
# Experimental: The effect of a high-fat, high-calorie meal on the pharmacokinetics of Compound I was evaluated in healthy participants who had previously received Compound 1 under fasted conditions in a Phase 1 trial. The effect of a high-fat, high-calorie meal on the PK of Compound 1 was evaluated at the 120 mg dose level after healthy adult participants had titrated to reach steady-state exposure. Following administration of 120 mg dose in the fed state or fasted state, the maximum plasma drug concentration (Cmax) and AUC, values were similar. Based on this analysis, Compound 1 may be administered without regard to food.
# [4] = patients who switched from Compound 1 to placebo
smiles,measurement,setting,value
"CC(C)(C)NC(=O)CN1CCC(CNC(=O)c2cc(F)cc(Cl)c2)CC1 [Compound 1, N-((1-(2-(tert-butylamino)-2-oxoethyl)piperidin-4-yl)methyl)-3-chloro-5-fluorobenzamide]",Patients who maintained their mADL11 within 3-points compared to baseline,[1]; 52% on placebo,85%
same,Participants with maintenance of response,"[1]; crossover period, Compound 1 60 mg, 11 of 21 on placebo",17 of 20
same,Safety signals,[1]; in vivo,No new safety signals emerged; also recorded: No new safety signal was identified
same,Average loss of effect in mADL11 per week,[1]; [4],47%
same,Mean loss of effect in mADL11,[1]; [4],−1.15 points/week
same,Improvement in global mean change in mADL11 per week,[1]; periods receiving Compound 1,6%
same,Mean improvement in mADL11,[1]; periods receiving Compound 1,0.16 points/week
same,Participants who qualified for and received rescue treatment,"[1]; within the 3-week period, 9 of 21 on placebo",None
same,mADL11 treatment effect relative to placebo,"[2]; Day 14, participants without intention tremor",1.03 points
same,"LSM mADL11 change from baseline, treatment effect relative to placebo",[2]; Day 28,1.44
same,"TETRAS PS items (dominant hand handwriting, left and right hand spirals), improvement vs placebo",[2]; Day 56,less improvement than those receiving placebo
same,mADL11 LSM treatment difference vs placebo,"[2]; after 56 days, 95% CI −3.565, −0.066, nominal p <0.05",−1.82
same,mADL and mADL11 scores vs. placebo at each scored timepoint,"[2]; after day 14, FIG. 15",improvement
same,"Magnitude of benefit on mADL11 vs placebo, 60 mg vs 100 mg groups",[2]; change from baseline versus placebo,largely similar
same,Modified ADL (mADL) scores in the Phase 2 trials,[2]; daily doses ranging from 20 to 120 mg for up to 56 days,reduced modified ADL (mADL) scores
same,"mADL scores, patients showing improvement vs placebo","[2]; day 56, FIG. 9",more patients taking ulixacaltamide showed improvements
same,"ADL score, average reduction compared to baseline","[2]; day 56, n=78",3.6 points
same,ADL scored items with consistent effect relative to placebo,"[2]; individual items, Day 56",8 of 11
same,Patients improved on CGI-S scale,[2]; mITT,42%
same,Patients improved on PGI-C scale,[2]; mITT,47%
same,mADL-scored items vs baseline in ET patients who do not have intention tremor,"[2]; mITT excluding intention tremor, FIGS. 18 and 19",larger improvement
same,"Placebo-adjusted mADL excluding PS, 60 mg vs 100 mg regimens","[2]; mITT patients without intention tremor, FIG. 20",consistent effect observed across both tested dosing regimens
same,mADL LS mean difference vs. placebo,"[2]; mITT, Day 56, p=0.126",1.57
same,"Modified ADL score, mean decrease","[2]; n=78, placebo 0.88 points",2.69 points
same,Patients achieving at least a 3-point improvement in mADL11,"[2]; patients on propranolol and ulixacaltamide, 25% for propranolol and placebo",48%
same,"mADL excluding PS items, LS mean difference vs. placebo","[2]; post hoc, Day 56, mITT, p=0.042",1.81
same,Treated participants with at least a 2 point improvement in total score,"[2]; post-hoc responder analysis, 0.5 SD threshold, mITT",greater than 50%
same,Treated subjects with at least a 4 point improvement in total score,"[2]; post-hoc responder analysis, 1 SD threshold, mITT",roughly 40%
same,Response rates vs placebo for mADL and mADL excluding PS items,"[2]; post-hoc responder analysis, MCID distribution method, mITT",greater response rates
same,"Change in TETRAS-ADL, LS mean difference vs. placebo","[2]; secondary endpoint, p=0.026",2.53
same,"AUC, fed state vs fasted state",[3],similar
same,"Cmax, fed state vs fasted state",[3],similar

# Source: US20250387382A1, “METHODS OF TREATING ESSENTIAL TREMOR” (Praxis Precision Medicines, Inc., priority 2023, published 2025)
